This passage reports IC50 results from US20220033397A1, “PHARMACEUTICAL COMPOUNDS AND THEIR USE AS INHIBITORS OF UBIQUITIN SPECIFIC PROTEASE 19 (USP19)” (ALMAC DISCOVERY LIMITED, priority 2018, published 2022).

The experiment concerns the target T1, Full-length USP19 (Homo sapiens, UniProt O94966).
T1 construct: Full-length USP19 was purchased from Boston Biochem (E-576); purchased Boston Biochem E-576
T1 sequence (O94966 1-1318): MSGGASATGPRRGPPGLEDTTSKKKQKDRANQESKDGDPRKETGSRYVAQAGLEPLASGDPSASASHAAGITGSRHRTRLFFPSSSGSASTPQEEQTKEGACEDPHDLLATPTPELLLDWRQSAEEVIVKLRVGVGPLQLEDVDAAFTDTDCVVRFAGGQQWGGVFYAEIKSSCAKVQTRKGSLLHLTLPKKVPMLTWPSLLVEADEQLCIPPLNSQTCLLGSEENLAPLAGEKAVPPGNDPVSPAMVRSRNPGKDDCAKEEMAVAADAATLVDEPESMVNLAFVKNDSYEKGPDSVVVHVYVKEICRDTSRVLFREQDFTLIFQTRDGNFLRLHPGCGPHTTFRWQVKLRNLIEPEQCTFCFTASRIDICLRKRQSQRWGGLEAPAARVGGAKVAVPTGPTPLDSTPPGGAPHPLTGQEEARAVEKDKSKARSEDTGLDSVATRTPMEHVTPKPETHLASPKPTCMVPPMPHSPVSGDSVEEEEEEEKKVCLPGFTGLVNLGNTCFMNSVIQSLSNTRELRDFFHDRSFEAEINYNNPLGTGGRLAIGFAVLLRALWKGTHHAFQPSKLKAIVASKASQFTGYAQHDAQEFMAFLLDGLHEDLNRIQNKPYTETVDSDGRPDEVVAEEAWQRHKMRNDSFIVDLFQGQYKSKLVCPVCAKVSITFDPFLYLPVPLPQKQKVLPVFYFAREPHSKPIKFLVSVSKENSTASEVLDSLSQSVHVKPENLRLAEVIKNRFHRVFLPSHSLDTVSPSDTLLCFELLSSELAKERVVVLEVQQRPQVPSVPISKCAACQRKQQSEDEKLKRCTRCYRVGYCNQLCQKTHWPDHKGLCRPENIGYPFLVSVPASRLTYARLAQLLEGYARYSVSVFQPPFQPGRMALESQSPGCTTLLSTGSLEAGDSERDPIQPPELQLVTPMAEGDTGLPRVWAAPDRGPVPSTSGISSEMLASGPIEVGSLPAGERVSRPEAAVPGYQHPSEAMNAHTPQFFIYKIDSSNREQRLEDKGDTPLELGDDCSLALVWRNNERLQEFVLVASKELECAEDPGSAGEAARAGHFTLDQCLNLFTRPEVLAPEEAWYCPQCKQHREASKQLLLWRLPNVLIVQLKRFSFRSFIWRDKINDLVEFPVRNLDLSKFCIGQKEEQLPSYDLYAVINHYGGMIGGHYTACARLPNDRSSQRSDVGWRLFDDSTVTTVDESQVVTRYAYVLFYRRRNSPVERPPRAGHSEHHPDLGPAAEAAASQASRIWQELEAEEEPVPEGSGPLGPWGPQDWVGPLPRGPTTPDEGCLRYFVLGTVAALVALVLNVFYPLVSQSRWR
Nature of the experiment: USP19 fluorescence polarisation (FP) homogeneous assay with Ubiquitin-Lys-TAMRA substrate. In kind it is biochemical. The following applies: 2.5 nM USP19, 30 min pre-incubation, average of at least two duplicate experiments. Summed up: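 Full-length USP19 preincubated 30 min at RT with inhibitor (200 μM to 2 μM series, 8–18 points) before adding 500 nM Ubiquitin-Lys-TAMRA substrate.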

With `O=C1Cn2ccnc2CN1CC1(O)CCN(C(=O)N2CCNC[C@H]2c2ccccc2)CC12CCCC2` (stereo partly drawn) [Example 119, 7-((10-Hydroxy-7-((R)-2-phenylpiperazine-1-carbonyl)-7-azaspiro[4.5]decan-10-yl)methyl)-7,8-dihydroimidazo[1,2-a]pyrazin-6(5H)-one], the IC50 was 0.5 to 5 µM. For `Cc1nc2ccccc2c(=O)n1CC1(O)CCN(C(=O)[C@H](C)CC2CCCCC2)CC12CCCC2` (stereo partly drawn) [Example 120, 3-((7-((R)-3-Cyclohexyl-2-methylpropanoyl)-10-hydroxy-7-azaspiro[4.5]decan-10-yl)methyl)-2-methylquinazolin-4(3H)-one], the IC50 lay within 0.5 to 5 µM. Under `C[C@H](CC1CCCCC1)C(=O)N1CCC(O)(Cn2ccc3ccc(F)cc3c2=O)C2(CCCC2)C1` (stereo partly drawn) [Example 121, 2-((7-((R)-3-Cyclohexyl-2-methylpropanoyl)-10-hydroxy-7-azaspiro[4.5]decan-10-yl)methyl)-7-fluoroisoquinolin-1(2H)-one] stands 0.5 to 5 µM; under `COc1ccc2ccn(CC3(O)CCN(C(=O)[C@H](C)CC(F)(F)F)CC34CCCC4)c(=O)c2c1` (stereo partly drawn) [Example 122, 2-((10-Hydroxy-7-((R)-4,4,4-trifluoro-2-methylbutanoyl)-7-azaspiro[4.5]decan-10-yl)methyl)-7-methoxyisoquinolin-1(2H)-one], 50 to 250 µM; under `C[C@H](CC(F)(F)F)C(=O)N1CCC(O)(Cn2cnc3sccc3c2=O)C2(CCCC2)C1` (stereo partly drawn) [Example 123, 3-((10-Hydroxy-7-((R)-4,4,4-trifluoro-2-methylbutanoyl)-7-azaspiro[4.5]decan-10-yl)methyl)thieno[2,3-d]pyrimidin-4(3H)-one], 50 to 250 µM. Under `CCn1ncc2c(=O)n(CC3(O)CCN(C(=O)[C@H](C)CC4CCCCC4)CC34CCCC4)cnc21` (stereo partly drawn) [Example 124, 5-((7-((R)-3-Cyclohexyl-2-methylpropanoyl)-10-hydroxy-7-azaspiro[4.5]decan-10-yl)methyl)-1-ethyl-1,5-dihydro-4H-pyrazolo[3,4-d]pyrimidin-4-one] stands under 0.5 µM; under `Cc1cccc2c(=O)n(CC3(O)CCN(C(=O)[C@H](C)CC4CCCCC4)CC34CCCC4)cnc12` (stereo partly drawn) [Example 125, 3-((7-((R)-3-Cyclohexyl-2-methylpropanoyl)-10-hydroxy-7-azaspiro[4.5]decan-10-yl)methyl)-8-methylquinazolin-4(3H)-one], 0.5 to 5 µM; under `C[C@H](CC(F)(F)F)C(=O)N1CCC(O)(Cn2ccc3cc(C(F)(F)F)ccc3c2=O)C2(CCCC2)C1` (stereo partly drawn) [Example 126, 2-((10-Hydroxy-7-((R)-4,4,4-trifluoro-2-methylbutanoyl)-7-azaspiro[4.5]decan-10-yl)methyl)-6-(trifluoromethyl)isoquinolin-1(2H)-one], 5 to 50 µM.

Take `COc1ccc2ccn(CC3(O)CCN(C(=O)[C@H](C)CC4CCCCC4)CC34CCCC4)c(=O)c2c1` (stereo partly drawn) [Example 127, 2-((7-((R)-3-Cyclohexyl-2-methylpropanoyl)-10-hydroxy-7-azaspiro[4.5]decan-10-yl)methyl)-7-methoxyisoquinolin-1(2H)-one]: the IC50 lay in the range of 0.5 to 5 µM. Regarding `C[C@H](CC1CCCCC1)C(=O)N1CCC(O)(Cn2cnc3ccccc3c2=O)C2(CCCC2)C1` (stereo partly drawn) [Example 128, 3-((7-((R)-3-Cyclohexyl-2-methylpropanoyl)-10-hydroxy-7-azaspiro[4.5]decan-10-yl)methyl)quinazolin-4(3H)-one], the IC50 was 0.5 to 5 µM. With `C[C@H](CC1CCCCC1)C(=O)N1CCC(O)(Cn2cnc3cc(Cl)ccc3c2=O)C2(CCCC2)C1` (stereo partly drawn) [Example 129, 7-Chloro-3-((7-((R)-3-cyclohexyl-2-methylpropanoyl)-10-hydroxy-7-azaspiro[4.5]decan-10-yl)methyl)quinazolin-4(3H)-one], the IC50 fell in the range of 0.5 to 5 µM.

For `C[C@H](CC(F)(F)F)C(=O)N1CCC(O)(Cn2cc(C(=O)N(C)C)c3ccccc3c2=O)C2(CCCC2)C1` (stereo partly drawn) [Example 130, 2-((10-Hydroxy-7-((R)-4,4,4-trifluoro-2-methylbutanoyl)-7-azaspiro[4.5]decan-10-yl)methyl)-N,N-dimethyl-1-oxo-1,2-dihydroisoquinoline-4-carboxamide], the IC50 fell in the range of 50 to 250 µM.
